Legend:
[1] = test system: GP2d cells (KRAS G12D); test: Cell-based pERK HTRF assay in GP2d cell (Biological Example 2); conditions: GP2d (KRAS G12D) cells
In short: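 Phospho-ERK is measured by HTRF following a 60 min compound exposure at 0.25% DMSO, with a 9-point half-log curve topping at 1 μM or 100 nM.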

[2] = test system: MKN1 cells (KRAS amplification); test: 3D Cell viability assay in MKN1 cells (Biological Example 6); format: cell-based; conditions: MKN (MKN1, KRAS amplification) spheroids, 72 hours
Procedure: (§1) Biological Example 6: 3D Cell viability assay in AsPC-1, SW1900, HPAC, Capan-2, RKN, H358, HCT116, KP-2, H1573, A549, MKN1, and HT1080 cells
(§2) The inhibition of cellular viability as a result of test compound treatment in a spheroid assay was measured using the CellTiter-Glow 3D Cell Viability Assay (Promega).
(§3) On Day 1, 1000 cells per well were seeded in 150 μL of complete growth media supplemented with 10% fetal bovine serum (FBS) and incubated at 37° C., in the presence of 5% CO2 in 96-well ultra-low attachment microplates (Corning) for 48 hours undisturbed to allow spheroids to form.
(§4) Following spheroid formation, cells were treated with compounds diluted in DMSO at 0.25% final DMSO concentration. Compounds were dosed in a 9-point concentration curve with three-fold dilution between concentrations. Cells were incubated in the presence of compound for 72 hours at 37° C., in the presence of 5% CO2.
(§5) Following this incubation period, the kit-provided CTG reagent was allowed to equilibrate for 30 minutes at room temperature, 150 μL of equilibrated CTG reagent was added to each well, and the plate was sealed before shaking at 250 rpm for 10 minutes at room temperature to lyse the cells, 150 μL of lysate per well was transferred to a 96-well plate and luminescence was read on a CLARIOstar plate reader.
(§6) Data was imported into the Prism software package (Graphpad) and EC50 values were calculated using the log (inhibitor) vs, response—variable slope (Four parameters) model.

[3] = molecular target: T1, Avi-KRAS G12D (2-169) GTP/RAF1 RBD-3xFLAG (51-131) (Homo sapiens, UniProt P01116, G12D); test: Raf1-KRAS G12D-GTP disruption HTRF assay (Biological Example 3); format: binding; conditions: KRAS G12D, GTP-loaded
T1 construct: Avi-KRAS G12D (2-169)
In short: (§7)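 Compounds were titrated 10-point, 3-fold from 30 μM against preformed KRAS-GTP:RAF1 RBD (51-131) complexes at 50 nM, using KRAS 2-169 as WT, G12C, G12D or G12V. After 1 h at room temperature in Tris pH 7.5 buffer with MgCl2 and 10% DMSO, time-resolved fluorescence was read. Results are percent activity versus DMSO.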

[4] = test system: Capan-2 cells (KRAS G12V); test: 3D Cell viability assay in Capan-2 cells (Biological Example 6); format: cell-based; conditions: Capan-2 (KRAS G12V) spheroids, 72 hours
Procedure: as §1, §2, §3, §4, §5, §6

[5] = molecular target: T2, Avi-KRAS WT (2-169) GTP/RAF1 RBD-3xFLAG (51-131) (Homo sapiens, UniProt P01116); test: Raf1-KRAS WT-GTP disruption HTRF assay (Biological Example 3); format: binding; conditions: KRAS WT, GTP-loaded
T2 construct: Avi-KRAS WT (2-169)
In short: as §7

T1 sequence (P01116 2-169 isoform P01116-2 G12D): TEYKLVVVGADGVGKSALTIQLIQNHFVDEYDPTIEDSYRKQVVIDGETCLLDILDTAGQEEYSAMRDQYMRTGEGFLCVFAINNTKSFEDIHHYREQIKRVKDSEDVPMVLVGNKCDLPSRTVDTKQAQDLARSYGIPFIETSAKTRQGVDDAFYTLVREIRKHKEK
T2 sequence (P01116 2-169 isoform P01116-2): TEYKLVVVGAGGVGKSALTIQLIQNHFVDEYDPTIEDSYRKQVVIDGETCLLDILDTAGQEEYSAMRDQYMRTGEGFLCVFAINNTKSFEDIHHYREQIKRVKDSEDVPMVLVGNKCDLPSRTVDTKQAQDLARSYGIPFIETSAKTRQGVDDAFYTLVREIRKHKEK

Row | SMILES | IC50 ([1]; GP2d) [nM] | IC50 ([1]; GP2d, pERK HTRF, class symbols) [nM] | IC50 ([2]; Homo sapiens, MKN-1) [nM] | IC50 [3] [nM] | IC50 [5] [nM] | IC50 ([1]; GP2d, pERK HTRF) [nM] | IC50 ([1]; pERK HTRF) [nM] | IC50 ([1]; pERK HTRF, class symbols) [nM] | IC50 [2] [nM] | IC50 ([4]; Homo sapiens) [nM] | IC50 [4] [nM]
1 | CCN(c1nc(OC[C@@]23CCCN2C[C@H](F)C3)nc2c(F)c(-c3ccc(F)c4sc(N)c(C#N)c34)c(C(F)(F)F)cc12)[C@H]1CCN(C(=O)C2CC2)[C@@H]1C (atropisomer, axis not shown) [Compound 579] | < 100 | < 100 | ≤ 100 | ≤ 100 | 100 to 1000 | – | – | – | – | ≤ 100 | –
2 | CCN(c1nc(OC[C@@]23CCCN2C[C@H](F)C3)nc2c(F)c(-c3ccc(F)c4sc(N)c(C#N)c34)c(C(F)(F)F)cc12)[C@H]1C[C@H](C)N(C(C)=O)C1 [Compound 463] | – | – | ≤ 100 | – | – | < 100 | – | – | – | ≤ 100 | –
3 | CCC(=O)N1CC[C@@H](N(C)c2nc(OC[C@@]34CCCN3C[C@H](F)C4)nc3c(F)c(-c4ccc(F)c5sc(N)c(C#N)c45)c(C(F)(F)F)cc23)[C@H]1C [Compound 260] | – | – | – | – | – | – | < 100 | – | – | ≤ 100 | –
4 | CCN(c1nc(OC[C@@]23CCCN2C[C@H](F)C3)nc2c(F)c(-c3ccc(F)c4sc(N)c(C#N)c34)c(C(F)(F)F)cc12)[C@H]1CCN(C(=O)c2ncco2)C1 (atropisomer, axis not shown) [Compound 584] | – | < 100 | ≤ 100 | – | – | – | – | – | – | ≤ 100 | –
5 | CCN(c1nc(OC[C@@]23CCCN2C[C@H](F)C3)nc2c(F)c(-c3ccc(F)c4sc(N)c(C#N)c34)c(C(F)(F)F)cc12)[C@@H]1CCN(C(C)=O)C1 [Compound 268] | < 100 | – | ≤ 100 | 100 to 1000 | 100 to 1000 | < 100 | – | – | – | ≤ 100 | –
6 | N#Cc1c(N)sc2c(F)ccc(-c3c(C(F)(F)F)cc4c(N5CCOCC5)nc(OC[C@@]56CCCN5C[C@H](F)C6)nc4c3F)c12 (single isomer, unassigned) [Compound 198] | < 100 | – | ≤ 100 | 100 to 1000 | 100 to 1000 | – | < 100 | – | – | ≤ 100 | –

Second part, led by results:

Row | IC50 ([1]; GP2d) [nM] | IC50 ([1]; GP2d, pERK HTRF, class symbols) [nM] | IC50 ([2]; Homo sapiens, MKN-1) [nM] | IC50 [3] [nM] | IC50 [5] [nM] | IC50 ([1]; GP2d, pERK HTRF) [nM] | IC50 ([1]; pERK HTRF) [nM] | IC50 ([1]; pERK HTRF, class symbols) [nM] | IC50 [2] [nM] | SMILES | IC50 ([4]; Homo sapiens) [nM] | IC50 [4] [nM]
7 | < 100 | < 100 | ≤ 100 | 100 to 1000 | 100 to 1000 | – | – | – | – | CCN(c1nc(OC[C@@]23CCCN2C[C@H](F)C3)nc2c(F)c(-c3ccc(F)c4sc(N)c(C#N)c34)c(C(F)(F)F)cc12)[C@H]1C[C@@H](C)N(C(=O)C2COC2)C1 (atropisomer, axis not shown) [Compound 586] | ≤ 100 | –
8 | – | – | ≤ 100 | – | – | < 100 | – | – | – | CN(Cc1cccnc1N)c1nc(OC[C@@]23CCCN2C[C@H](F)C3)nc2c(F)c(-c3ccc(F)c4sc(N)c(C#N)c34)c(C(F)(F)F)cc12 [Compound 390] | ≤ 100 | –
9 | < 100 | – | ≤ 100 | 100 to 1000 | 100 to 1000 | – | < 100 | – | – | CC(=O)N1CC[C@@H](N(C)c2nc(OC[C@@]34CCCN3C[C@H](F)C4)nc3c(F)c(-c4ccc(F)c5sc(N)c(C#N)c45)c(C(F)(F)F)cc23)[C@H]1C (single isomer, unassigned) [Compound 193] | ≤ 100 | –
10 | – | – | ≤ 100 | – | – | < 100 | – | – | – | CCN(c1nc(OC[C@@]23CCCN2C[C@H](F)C3)nc2c(F)c(-c3ccc(F)c4sc(N)c(C#N)c34)c(Cl)cc12)[C@@H]1CCN(C(=O)C2CC2)[C@@H]1C [Compound 337] | 100 to 1000 | –
11 | – | – | – | – | – | – | – | < 100 | ≤ 100 | CCN(c1nc(OCC23CCCN2CC(F)C3)nc2c(F)c(-c3ccc(F)c4sc(N)c(C#N)c34)c(C(F)(F)F)cc12)C1CC(C)N(C(=O)N2CC(F)C2)C1 (centres unmarked) [Compound 759] | – | ≤ 100

— patent US20260042764A1, “COMPOSITIONS AND METHODS FOR INHIBITION OF KRAS” (TheRas, Inc., priority 2022, published 2026)
